Tests used:
[1] = Inhibitory activity of compound on p24 production in peripheral blood mononuclear cells infected with HIV strain RT-MDR.; assay type: functional; settings: Homo sapiens
[2] = Inhibitory activity of compound on p24 production in peripheral blood mononuclear cells infected with HIV strain A17 variant.; assay type: functional; settings: Homo sapiens
[3] = Inhibitory activity of compound on p24 production in peripheral blood mononuclear cells infected with HIV strain A17.; assay type: functional; settings: Homo sapiens
[4] = Inhibitory activity of compound on p24 production in peripheral blood mononuclear cells infected with HIV strain HTLV IIIB wild type.; assay type: functional; settings: Homo sapiens
[5] = biological target: Human immunodeficiency virus type 1 reverse transcriptase (Human immunodeficiency virus 1, UniProt Q72547); assay: Inhibition of purified recombinant HIV-1 reverse transcriptase
[6] = Inhibitory activity of compound won p24 production in peripheral blood mononuclear cells infected with HIV strain HTLV IIIB wild type.; assay type: functional; settings: Homo sapiens

Row | Structure (SMILES) | IC50 [1] [nM] | IC50 [2] [nM] | IC50 [3] [nM] | IC50 [4] [nM] | IC50 [5] [nM] | IC50 [6] [nM]
1 | Fc1ccccc1CCNC(=S)Nc1ccc(Br)cn1 | 5 | 41000 | 200 | < 10 | 600 | –
2 | S=C(NCCc1ccccc1Cl)Nc1ccc(Br)cn1 | 4 | – | – | < 10 | 700 | –
3 | Cc1cn([C@H]2C[C@H](N=[N+]=[N-])[C@@H](CO)O2)c(=O)[nH]c1=O [ZIDOVUDINE] | 150 | 4 | 6 | 4 | – | –
4 | Cc1ccnc2c1NC(=O)c1cccnc1N2C1CC1 [NEVIRAPINE] | 5000 | > 100000 | > 100000 | – | – | 34
5 | S=C(NCCc1ccccn1)Nc1ccc(Br)cn1 [TROVIRDINE] | 20 | – | – | 7 | – | –
6 | S=C(NCCC1=CCCCC1)Nc1ccc(Cl)cn1 | – | – | – | 3 | 3700 | –
7 | Fc1ccc(CCNC(=S)Nc2ccc(Br)cn2)cc1 | – | – | – | – | 6400 | –
8 | COc1ccc(OC)c(CCNC(=S)Nc2ccc(Br)cn2)c1 | 5 | 11000 | 100 | < 1 | 100 | –
9 | CC(C)Nc1cccnc1N1CCN(C(=O)c2cc3cc(NS(C)(=O)=O)ccc3[nH]2)CC1 [DELAVIRDINE] | 400 | > 100000 | 50000 | 9 | – | –
10 | CCOCn1c(Cc2ccccc2)c(C(C)C)c(=O)[nH]c1=O [EMIVIRINE] | 300 | – | – | – | 800 | –
11 | Fc1cccc(CCNC(=S)Nc2ccc(Br)cn2)c1 | 20 | – | – | < 1 | 700 | –

From ChEMBL document CHEMBL1131738, “Rational design of N-[2-(2,5-dimethoxyphenylethyl)]-N'-[2-(5-bromopyridyl)]-thiourea (HI-236) as a potent non-nucleoside inhibitor of drug-resistant human immunodeficiency virus” (Bioorg Med Chem Lett, 1999)
